# Laboratory results reported in US20260325685A1, “Radiopharmaceutical Compositions Targeting Carbonic Anhydrase IX and Uses Thereof” (RayzeBio, Inc., priority 2023, published 2026).
# Legend:
# human CA-IX = target: T1, human CA-IX (Homo sapiens, UniProt Q16790); test: Surface Plasmon Resonance (SPR) binding kinetics to recombinant human CA-IX (Biacore 8K, single-cycle kinetics, 1:1 binding model); conditions: Chelated Metal: Lu-175; SPR, 25° C., pH 7.4; read-out: CAIX KD
# T1 construct: purchased Acro CA9-H82E3
# How it was run: (§1)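 First, ligand at 10 μg/mL was captured on streptavidin to 1200-1800 RU, with 180 s injection for CA-IX and 75 s for CA-XII. Next, compound (100-0.39 nM, 9 levels) in PBS-P+ with 1% DMSO was injected. Association lasted 120 s and dissociation 1200 s at 25° C.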
# human CA-XII = target: T2, human CA-XII (Homo sapiens, UniProt O43570); test: Surface Plasmon Resonance (SPR) binding kinetics to recombinant human CA-XII (Biacore 8K, single-cycle kinetics, 1:1 binding model); conditions: Chelated Metal: Lu-175, 25° C., pH 7.4, read-out: CAXII KD
# T2 construct: purchased Creative BioMart CA12-261H
# T2 sequence (O43570 25-354): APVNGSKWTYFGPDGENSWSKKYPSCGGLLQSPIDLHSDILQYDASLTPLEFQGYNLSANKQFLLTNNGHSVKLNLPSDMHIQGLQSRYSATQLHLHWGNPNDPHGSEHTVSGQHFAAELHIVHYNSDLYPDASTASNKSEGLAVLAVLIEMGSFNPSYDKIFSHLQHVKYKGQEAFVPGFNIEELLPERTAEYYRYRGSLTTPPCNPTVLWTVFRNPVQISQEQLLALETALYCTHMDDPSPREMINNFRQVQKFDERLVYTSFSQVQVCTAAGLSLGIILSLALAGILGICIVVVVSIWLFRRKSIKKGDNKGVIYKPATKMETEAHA
# How it was run: as §1
SMILES,Kd (human CA-IX) [nM],Kd (human CA-XII) [nM]
NS(=O)(=O)c1nnc(NC(=O)C23CCC(c4cn(CCNC(=O)[C@@H]5CN(C(=O)CN6CCN(CC(=O)O)CCN(CC(=O)O)CCN(CC(=O)O)CC6)CCN5C(=O)CC[C@H](NC(=O)C[C@H](NC(=O)CCC5CCCCCC5)C(=O)O)C(=O)O)nn4)(CC2)CC3)s1.[Lu+3] [Compound 109.46],< 1,< 1
NS(=O)(=O)c1nnc(NC(=O)C23CCC(c4cn(CCNC(=O)[C@@H]5CN(C(=O)CN6CCN(CC(=O)O)CCN(CC(=O)O)CCN(CC(=O)O)CC6)CCN5C(=O)CC[C@H](NC(=O)C[C@H](NC(=O)c5cc(C(F)(F)F)[nH]n5)C(=O)O)C(=O)O)nn4)(CC2)CC3)s1.[Lu+3] [Compound 109.47],< 1,< 1
NS(=O)(=O)c1nnc(NC(=O)C23CCC(c4cn(CCNC(=O)[C@@H]5CN(C(=O)CN6CCN(CC(=O)O)CCN(CC(=O)O)CCN(CC(=O)O)CC6)CCN5C(=O)CC[C@H](NC(=O)C[C@H](NC(=O)CCC5CC5)C(=O)O)C(=O)O)nn4)(CC2)CC3)s1.[Lu+3] [Compound 109.48],< 1,< 1
Cc1c(C(F)(F)F)n[nH]c1C(=O)N[C@@H](CC(=O)N[C@@H](CCC(=O)N1CCN(C(=O)CN2CCN(CC(=O)O)CCN(CC(=O)O)CCN(CC(=O)O)CC2)C[C@H]1C(=O)NCCn1cc(C23CCC(C(=O)Nc4nnc(S(N)(=O)=O)s4)(CC2)CC3)nn1)C(=O)O)C(=O)O.[Lu+3] [Compound 109.49],< 1,< 1
NS(=O)(=O)c1nnc(NC(=O)C23CCC(c4cn(CCNC(=O)[C@@H]5CN(C(=O)CN6CCN(CC(=O)O)CCN(CC(=O)O)CCN(CC(=O)O)CC6)CCN5C(=O)CC[C@H](NC(=O)C[C@H](NC(=O)c5n[nH]c6ccccc56)C(=O)O)C(=O)O)nn4)(CC2)CC3)s1.[Lu+3] [Compound 109.50],< 1,< 1
NS(=O)(=O)c1nnc(NC(=O)C23CCC(c4cn(CCNC(=O)[C@@H]5CN(C(=O)CN6CCN(CC(=O)O)CCN(CC(=O)O)CCN(CC(=O)O)CC6)CCN5C(=O)CC[C@H](NC(=O)C[C@H](NC(=O)C5CC6(CCC6)C5)C(=O)O)C(=O)O)nn4)(CC2)CC3)s1.[Lu+3] [Compound 109.51],< 1,< 1
NS(=O)(=O)c1nnc(NC(=O)C23CCC(c4cn(CCNC(=O)[C@@H]5CN(C(=O)CN6CCN(CC(=O)O)CCN(CC(=O)O)CCN(CC(=O)O)CC6)CCN5C(=O)CC[C@H](NC(=O)C[C@H](NC(=O)CCC(F)(F)F)C(=O)O)C(=O)O)nn4)(CC2)CC3)s1.[Lu+3] [Compound 109.53],< 1,< 1
NS(=O)(=O)c1nnc(NC(=O)C23CCC(c4cn(CCNC(=O)[C@@H]5CN(C(=O)CN6CCN(CC(=O)O)CCN(CC(=O)O)CCN(CC(=O)O)CC6)CCN5C(=O)CC[C@H](NC(=O)C[C@H](NC(=O)c5ccc(C6CC6)cc5)C(=O)O)C(=O)O)nn4)(CC2)CC3)s1.[Lu+3] [Compound 109.54],< 1,< 1
NS(=O)(=O)c1nnc(NC(=O)C23CCC(c4cn(CCNC(=O)[C@@H]5CN(C(=O)CN6CCN(CC(=O)O)CCN(CC(=O)O)CCN(CC(=O)O)CC6)CCN5C(=O)CC[C@H](NC(=O)C[C@H](NC(=O)c5ccc(C6CCCCC6)cc5)C(=O)O)C(=O)O)nn4)(CC2)CC3)s1.[Lu+3] [Compound 109.55],< 1,< 1
NS(=O)(=O)c1nnc(NC(=O)C23CCC(c4cn(CCNC(=O)[C@@H]5CN(C(=O)CN6CCN(CC(=O)O)CCN(CC(=O)O)CCN(CC(=O)O)CC6)CCN5C(=O)CC[C@H](NC(=O)C[C@H](NC(=O)c5ccc(C6CC6)nc5)C(=O)O)C(=O)O)nn4)(CC2)CC3)s1.[Lu+3] [Compound 109.56],< 1,1 to 2.5
NS(=O)(=O)c1nnc(NC(=O)C23CCC(c4cn(CCNC(=O)[C@@H]5CN(C(=O)CN6CCN(CC(=O)O)CCN(CC(=O)O)CCN(CC(=O)O)CC6)CCN5C(=O)CC[C@H](NC(=O)C[C@H](NC(=O)CCC56CCC(CC5)C6)C(=O)O)C(=O)O)nn4)(CC2)CC3)s1.[Lu+3] [Compound 109.57],< 1,< 1
